According to patent US9521845B2, “Beta-lactones as antibacterial agents” (LUDWIG-MAXIMILIANS-UNIVERSITÄT-MÜNCHEN, priority 2008, dated 2016):

What was measured:
bacterial proteomes = assay: ABPP labeling of bacterial proteomes, labeling profile; format: binding; details: 50 μM probe
Description: The library of beta-lactones to be tested comprised compounds with aliphatic or aromatic substitutions varying in length and branching. To evaluate the target selectivity, the beta-lactones were screened against several gram-positive and gram-negative bacterial proteomes including Pseudomonas putida, Listeria welshimeri, Bacillus licheniformis, Bacillus subtilis and Escherichia coli, which are phylogenetically related to pathogenic strains. In addition, mouse liver cytosol was included as an eukaryotic reference proteome. Initial labeling experiments were carried out by adding individual probes at 50 μM concentration to the proteome which is sufficient to achieve full saturation of most targets. […] As an example, labeling of L. welshimeri cytosolic and membrane proteomes as well as B. subtilis cytosolic proteome with a subset of the most complementary probes is shown in FIGS. 9A and 9B. […] Most of the targeted proteins were of low abundance as shown by the direct comparison of the relative intensities observed with Coomassie staining vs. fluorescence scanning (FIG. 11).
(§1) Proteome samples were adjusted to a final concentration of 1 mg protein/mL by dilution in PBS prior to probe labeling. Experiments for visualization by 1D SDS-PAGE were carried out in 43 μL total volume and those for affinity enrichment in 1892 μL total volume, such that once CC reagents were added, the total reaction volume was 50 μL and 2 mL, respectively. Reactions were initiated by addition of the probe and allowed to incubate for 60 min at room temperature. For heat controls the proteome was denatured with 1 μL of 43% SDS at 95° C. for 6 min and cooled to room temperature before the probe was applied. Following incubation, reporter tagged-azide reagents (13 μM rhodamine-azide for analytical or 20 μM rhodamine-biotin-azide for preparative scale) were added followed by 1 mM TCEP and 100 μM ligand. Samples were gently vortexed and the cycloaddition initiated by the addition of 1 mM CuSO4. The reactions were incubated at room temperature for 1 h (Speers, J. Amer. Chem. Soc. 125 (2003), 4686).

serine proteases = assay: Competitive labeling with PMSF; format: binding; details: 100 fold excess, 15 min prior to beta-lactone probes
Description: (§2) FIG. 13: Active site competition assays and IC50. A) Competition experiment with KAS II with and without 100 fold excess of cerulenin in presence of the beta-lactone probe G2. B) Competition experiments with several serine proteases with and without 100 fold excess of PMSF in presence of the corresponding beta-lactone probes (LWC: L. welshimeri cytosol, LWM: L. welshimeri membrane, BSC: B. subtilis cytosol). C) IC50 of 5 μM for SFGH. For a list of abbreviations, please refer to Example 6, Table 1. The term PNB is also referred to herein as PNBE.
(§3) In competitive assays, a 100 fold excess of PMSF or cerulenin was added to the proteome 15 min prior to beta-lactone addition.

ClpP = biological target: T1, ClpP (Listeria monocytogenes serovar 1/2a, UniProt Q9RQI6); assay: In vivo labeling of Listeria proteomes; format: cell-based; details: living L. monocytogenes EGDe, cytosol, 2 h incubation
T1 construct: endogenous in cells; host or cells: living Listeria monocytogenes EGDe, stationary phase
T1 sequence (Q9RQI6 whole entry): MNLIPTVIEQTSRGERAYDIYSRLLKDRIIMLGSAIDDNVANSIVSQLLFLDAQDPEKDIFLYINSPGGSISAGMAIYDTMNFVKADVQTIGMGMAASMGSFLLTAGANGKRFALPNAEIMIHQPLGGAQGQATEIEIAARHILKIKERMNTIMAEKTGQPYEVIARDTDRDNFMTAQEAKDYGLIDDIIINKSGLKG
Description: For analytical and preparative in vivo studies, Listeria were grown to stationary phase and harvested by centrifugation at 4,000 rpm 1 h after entrance in the stationary phase (1.5 ml for analytical and 15 ml for preparative studies). The cell pellets were washed once with PBS and resuspended in 100 μL and 500 μL PBS for analytical and preparative studies, respectively. The cell suspensions were incubated for 2 h with varying concentrations of probe at room temperature. Probes were applied from DMSO stocks whereby DMSO never exceeded 2% in the final solution. For preparative experiments, 50 μM of the probes was added to the cells resuspended in PBS. After incubation, the cells were washed thoroughly three times with PBS to remove excess probe from the supernatant. Subsequently the cells were lysed in 100 μL (500 μL) PBS by sonication with a Bandelin Sonopuls with 3×20 sec. pulsed at 70% max. power. For analytical experiments 44 μL proteome were used to append a reporter tag via CC, such that once CC reagents were added, the total reaction volume was 50 μL. In preparative purposes the total volume of 500 μL it was consumed per experiment. Reporter tagged-azide reagents (13 μM rhodamine-azide for analytical or 20 μM rhodamine-biotin-azide for preparative scale) were added followed by 1 mM TCEP and 100 μM ligand. Samples were gently vortexed and the cycloaddition initiated by the addition of 1 mM CuSO4. The reactions were incubated at room temperature for 1 h. For analytical gel electrophoresis, 50 μL 2×SDS loading buffer were added and 50 μL applied on the gel. Fluorescence was recorded in a Fujifilm Las-3000 Fluoreszenz Darkbox with a Fujinon VRF 43LMD Lens, 605DF40 filter and 520 nm EPI excitation wavelength.

[1] = tested on: proteolysis abilities of Staphylococcus aureus; assay: Milk agar plate-based proteolysis assay; format: cell-based; details: for proteolytic activity of S. aureus: total amount of 250 nmol applied on Whatman Cards, 1% skim milk LB agar, 37° C. over night
Description: FIG. 6: Milk agar plate-based assay illustrating that beta-lactones have an effect on the proteolysis abilities of Staphylococcus aureus. 2.5 μL of S. aureus LB dilution (OD600=0.13 corresponding to approx. 1×10^8 cfu/ml) and 2.5 μL DMSO/beta-lactone in DMSO were applied on Whatman Cards placed on 1% skim milk LB agar plates and incubated at 37° C. over night. A) Direct comparison of beta-lactones as shown in FIG. 2 at a total amount of 250 nmol applied on Whatman Cards. B) Dose down with beta-lactones D3, E2 and G2 at applied concentrations of 100 mM, 50 mM, 25 mM, 12.5 mM, 6.25 mM and 0 mM (corresponding to total amounts of 250 nmol, 125 nmol, 62.5 nmol, 31.3 nmol, 15.6 nmol and 0 nmol, respectively). C) Proteolysis zone size plotted against the total amount of the respective beta-lactone.
2.5 μL of S. aureus LB dilution (OD600=0.13 corresponding to approx. 1×10^8 cfu/ml) and 2.5 μL DMSO/beta-lactone in DMSO were applied on Whatman Cards placed on 1% skim milk LB agar plates and incubated at 37° C. over night. FIG. 6A directly compares the β-lactones at a total amount of 250 nmol applied on Whatman Cards. […] For D3 and E2 almost no proteolysis is observed down to a total amount of 125 nmol of the respective beta-lactone. FIG. 6C illustrates that the proteolysis zone size plotted against the total amount of beta-lactone visualizes the strong effects particularly of D3 and E2.

[2] = tested on: haemolysis abilities of Staphylococcus aureus; assay: Blood agar plate-based haemolysis assay; format: cell-based; details: total amount of 250 nmol applied on Whatman Cards, 5% sheep blood agar, 37° C. over night
Description: FIG. 3: Blood agar plate-based assay illustrating that beta-lactones have an effect on the haemolysis abilities of Staphylococcus aureus. 2.5 μL of S. aureus LB dilution (OD600=0.13 corresponding to approx. 1×10^8 cfu/ml) and 2.5 μL DMSO/lactone in DMSO were applied on Whatman Cards placed on 5% sheep blood agar plates (Heipha Diagnostika, Eppelheim, Germany) and incubated at 37° C. over night. A) Direct comparison of beta-lactones as shown in FIG. 2 at a total amount of 250 nmol applied on Whatman Cards. B) Dose down with beta-lactone compounds D3, E2 and G2 at applied concentrations of 100 mM, 50 mM, 25 mM, 12.5 mM, 6.25 mM and 0 mM (corresponding to total amounts of 250 nmol, 125 nmol, 62.5 nmol, 31.3 nmol, 15.6 nmol and 0 nmol, respectively).
2.5 μl, of S. aureus LB dilution (OD600 0.13 corresponding to approx. 1×10^8 cfu/ml) and 2.5 μL DMSO/beta-lactone in DMSO were applied on Whatman Cards placed on 5% sheep blood agar plates (Heipha Diagnostika, Eppelheim, Germany) and incubated at 37° C. over night. FIG. 3A directly compares the β-lactones at a total amount of 250 nmol applied on Whatman Cards. […] For D3 almost no haemolysis is observed down to a total amount of 125 nmol lactone. FIG. 5 illustrates the haemolytic activity of beta-lactone compounds D3, E2 and G2 plotted against the total amount of the respective beta-lactone, whereby a haemolysis zone size of 1.5 mm was set as 100% haemolytic activity. The data shown in FIG. 5 has been corroborated by further experimental testing.
Haemolysis was tested on blood agar plates (5% sheep blood; Heipha Diagnostika, Eppelheim, Germany). Sterile circles of Whatman cards (No. Y) with 5 mm diameter were placed on agar plates and inoculated with 2.5 μL of the corresponding beta-lactone/DMSO and 2.5 μL stationary phase culture of S. aureus diluted to […]. The plates were incubated over night at 37° C. and the diameters of the zones around the bacterial colonies were precisely measured using a vernier caliper.

[3] = tested on: LLO haemolytic activity of L. monocytogenes EGDe; assay: LLO haemolytic activity testing of culture supernatants; format: cell-based, Listeria monocytogenes EGDe
Description: Overnight cultures of L. monocytogenes EGDe were harvested by centrifugation and resuspended in an equal volume of fresh BHB medium. In 1.5 mL Eppendorf tubes, 400 μL of BHB medium were inoculated with 4 μL of the resuspended Listeria culture and 4 μL of a corresponding beta-lactone stock in DMSO. The final concentrations were 800 μM, 400 μM, 200 μM, 100 μM and DMSO as control. The amount of DMSO in all tests was 1% of the medium. After mixing, the test tubes were incubated under continuous shaking at 200 rpm at 37° C. for 16 h. Then, cells were centrifuged and the supernatants filtered sterile by passing them through a 0.2 μm pore size filter. Haemolytic activity of LLO in the culture supernatants was quantitatively investigated according to a method described in J. Food Safety 1998, 18: 197-203 (incorporated herein by reference) with some modifications. In Nunclon™ 96-well plates with round shaped wells 100 μL of serial dilutions of the supernatants in PBS were added per well and incubated with 100 μL of 3% SRBC (sheep red blood cells) resuspended in PBS for 15 min at 37° C. under gentle shaking. The 96-well plates were centrifuged at 600 rpm for 5 min and the minimum dilution at which intact blood cells began to form a pellet was recorded. Controls with no lactone were set 100%. Buffer only controls and pure BHB medium yielded no haemolysis.

[4] = tested on: lipase/acylhydrolase (LipAc); assay: ABPP probe dose down in proteome, lipase/acylhydrolase labeling; format: binding; details: L. welshimeri proteome, concentration range 10 μM to 5 nM
Description: To estimate the strength of probe interactions with proteins in the proteome, we compared the reactivity profiles of selected beta-lactones across a broad concentration range from 10 μM to 5 nM.
as §1

KAS II = assay: Competitive labeling with cerulenin; format: binding; details: 100 fold excess, 15 min prior to beta-lactone probe G2
Description: as §2, §3

C#CCCCC1OC(=O)C12CCCCC2 (stereo not shown) [O1, 4-(4-pentyn-1-yl)oxetan-2-one-3-spirocyclohexane]
enzyme labeling in proteomes (bacterial proteomes): decreased the number of specific labeling events

O=S(=O)(F)Cc1ccccc1 [PMSF]
effect of pre-incubation on probe labeling of serine proteases (serine proteases): prevented subsequent probe labeling

C#CCCCC1OC(=O)C1(C)C (stereo not drawn) [M1, trans-3,3-dimethyl-4-(4-pentyn-1-yl)oxetan-2-one, reference compound]
ClpP labeling (probe potency ranking) (ClpP): did not label and inhibit ClpP | proteolytic activity of S. aureus [1]: no effect | haemolytic activity of S. aureus [2]: no effect | effect on haemolysis ([3]; control probe): no effect | lysis of blood cells by culture supernatant ([3]; fourfold dilution of supernatant, even at 800 μM): complete lysis

C#CCCC[C@@H]1OC(=O)[C@H]1c1ccc2ccccc2c1 (relative stereo) [P1, trans-3-(2-naphthyl)-4-(4-pentyn-1-yl)oxetan-2-one, reference compound]
probe concentration down to which LipAc is labeled [4]: 160 nM

C#CCCCC1OC(=O)C1c1ccc(OC)cc1 (stereo not drawn) [E2, trans-3-(4-methoxyphenyl)-4-(4-pentyn-1-yl)oxetan-2-one]
total amount down to which almost no proteolysis is observed ([1]; dose down 250-15.6 nmol): 125 nmol | proteolytic activity of S. aureus [1]: strongly reduce | haemolytic activity of S. aureus [2]: strongly reduce

C/C=C/C/C=C/CCC(=O)[C@H]1O[C@H]1C(N)=O [cerulenin]
effect of pre-incubation on probe labeling of KAS II (KAS II): prevented subsequent probe labeling

C#CCCCC1CC(=O)O1 (stereo not shown) [A1, 4-(4-Pentyn-1-yl)oxetan-2-one]
enzyme labeling in proteomes (bacterial proteomes): poor in enzyme labeling

C#CCCC[C@@H]1OC(=O)[C@H]1CCCCCCCC(=O)Sc1ccccc1 (relative stereo) [N1, trans-S-phenyl 8-(2-oxo-4-(4-pentyn-1-yl)oxetan-3-yl)octanethioate]
ClpP labeling (probe potency ranking) (ClpP): most potent probes | EC50 ([3]; Listeria monocytogenes, Erythrocyte, cultures grown 16 h with lactone, sheep red blood cells, read-out: EC50 of reduction of LLO haemolytic activity): < 100 µM

C#CCCC[C@H]1OC(=O)[C@H]1C(C)(C)C (relative stereo) [L1, cis-3-dimethylethyl-4-(4-pentyn-1-yl)oxetan-2-one]
enzyme labeling in proteomes (bacterial proteomes): decreased the number of specific labeling events
